Assay [1] deals with MCF-7 human mammary carcinoma cells. Nature of the assay: Drug resistance, viable cell number (Coulter Counter). The class given is cell-based. As for the experimental part:
(§1) FIG. 15A is a line graph showing that MCF-7/Adr drug-resistant human mammary carcinoma cells grown in culture with hyaluronan oligomers are sensitized to doxorubicin. MCF-7/Adr cells were obtained from MCF-7 cells by being selected for drug resistance by exposure to doxorubicin. Cells were grown for 24 h in 24-well plates in RPMI 1640 medium containing Glutamex 1 plus 10% fetal bovine serum at 37° in 5% CO2. Various concentrations of doxorubicin (doxo) were then added and the cells incubated for another 72 h, followed by a further 24 h in the presence or absence of 100 μg/ml hyaluronan oligomers (o-HA). The oligomers were a mixed population of 3-8 repeating disaccharides in length. The cells were then harvested and the number of viable cells was determined in a Coulter Counter.

In assay [2] the test system is MCF-7/Adr drug-resistant human mammary carcinoma cells. The assay is described as above. The class given is cell-based. The procedure:
as §1
FIG. 18 is a set of line graphs showing a resulting cell number, on the ordinate, following drug treatment with doxorubicin, concentration (log) in nM on the abscissa, showing restoration of drug sensitivity (inhibition of drug resistance) by HA oligomers, soluble hyaluronan-binding decoys, and CD44 siRNA, using derivatives of MCF-7 cells as in FIG. 17 above.
Therefore, the effect of co-treatment with hyaluronan oligomers on drug resistance was examined in an established system, i.e. MCF-7/Adr human mammary carcinoma cells that have been selected for resistance to doxorubicin (Fairchild, C. R., et al., Cancer Res 47, 5141-8, 1987). First, the effect of hyaluronan oligomers on resistance to doxorubicin in the MCF-7/Adr cells versus the relatively drug-sensitive, parental MCF-7 cell line was compared.

Assay [3] concerns MCF-7 cells infected with Has2, emmprin or β-galactosidase adenovirus. Nature of the assay: Doxorubicin resistance of recombinant adenovirus-infected MCF-7 cells. It is filed as cell-based, human. The following applies: for IC50: Homo sapiens, MCF7, 48 h, 48 h. The procedure:
Untreated MCF-7 cells or cells infected overnight with a recombinant Has2 adenovirus or a control β-galactosidase adenovirus (β-gal) were washed, then treated in culture for 48 h with 1-1000 nM doxorubicin, followed by analysis of cell number.
Cells were treated in culture for 48 h with 10-1000 nM doxorubicin in the presence or absence of 100 μg/ml o-HA and analyzed as in FIG. 16A.
FIG. 16C is a line graph showing doxorubicin response of untreated MCF-7 cells or cells infected overnight with a recombinant emmprin adenovirus or a control β-galactosidase adenovirus (β-gal) that were treated as described in FIG. 16B.
Emmprin adenovirus-infected MCF-7 cells or control β-galactosidase adenovirus (β-gal)-infected cells were treated in the presence or absence of 100 μg/ml hyaluronan oligomers (o-HA) as described in FIG. 16B. The results in FIGS. 16A-D are expressed as the means (±S.D) of three independent experiments performed in triplicate.

The test system of assay [4] is MDA-MB231 human mammary carcinoma cells. Description: Methotrexate resistance, cell number in monolayer culture. It is filed as cell-based. As for the experimental part:
MDA-MB231 human mammary carcinoma cells were treated with increasing concentrations of methotrexate (MTX) in the presence or absence of 100 μg/ml HA oligomers. Cells were grown in monolayer culture in 10% fetal bovine serum and cell number measured in a coulter counter. The MTT assay for viable cells (Denizot, F., et al. J Immunol Methods, 89: 271-277, 1986) gave similar results.
Effect of addition of hyaluronan oligomers on resistance of MDA-MB231 human breast cancer cells to treatment with methotrexate was assessed.

[5] abbreviates: MCF-7 + o-HA (100 μg/ml hyaluronan oligomers).
Setting [6] is: MCF-7/Adr + o-HA (100 μg/ml hyaluronan oligomers).
Where [7] appears, read: Homo sapiens, MCF7, MCF-7 cells, drug alone.
[8] abbreviates: Homo sapiens, NCI/ADR-RES, MCF-7/Adr cells, drug alone.

SMILES strings stand for the structures. Read-outs that look alike come from different tables or passages of the source.

As to `O=NN(CCCl)C(=O)NCCCl` [BCNU, 1,3 bis(2-chloroethyl)-1-nitrosurea], the 50% inhibitory concentration (IC50) came out at 1.2 µM in assay [1] (setting [5]); 0.5 µM in assay [1] (MCF-7 cells, drug alone); 0.18 µM in assay [2] (setting [6]); 14 µM in assay [2] (MCF-7/Adr cells, drug alone).
As to `COc1cccc2c1C(=O)c1c(O)c3c(c(O)c1C2=O)C[C@@](O)(C(=O)CO)C[C@@H]3O[C@H]1C[C@H](N)[C@H](O)[C@H](C)O1` [Doxorubicin], the “increase in resistance to doxorubicin induced by increased hyaluronan production” value in assay [3] (HAS2 adenovirus-infected MCF-7 versus controls) is listed as 10-12 fold. Further, the half-inhibitory concentration (IC50) worked out at 0.21 µM in assay [3] (Has2 adenovirus-infected MCF-7 cells); 0.018 µM in assay [3] (uninfected MCF-7 cells); 0.02 µM in assay [3] (β-galactosidase adenovirus-infected MCF-7 cells); 0.03 µM in assay [1] (setting [7]); 0.04 µM in assay [1] (setting [5]); 2.2 µM in assay [2] (setting [8]). Also, the IC50 in assay [2] (setting [6]) came out at 0.04 µM.
Take `CN(Cc1cnc2nc(N)nc(N)c2n1)c1ccc(C(=O)N[C@@H](CCC(=O)O)C(=O)O)cc1` [Methotrexate]: the IC50 in assay [4] (MDA-MB-231, MB231 cells, with 100 μg/ml hyaluronan oligomer (FIG. 12), read-out: IC50) is around 0.01 µM; in assay [4] (MDA-MB-231, MB231 cells, without hyaluronan oligomer (FIG. 12), read-out: IC50) it was around 1 µM; in assay [4] (MDA-MB-231, MDA-MB231 + o-HA (100 μg/ml hyaluronan oligomers), read-out: IC50 values), 0.006 µM; in assay [4] (MDA-MB-231, MDA-MB231 cells, drug alone, read-out: IC50 values), 0.8 µM; in assay [1] (setting [7]), 0.02 µM.
Turning to `CC(=O)O[C@H]1C(=O)[C@@]2(C)[C@H]([C@H](OC(=O)c3ccccc3)[C@]3(O)C[C@H](OC(=O)[C@H](O)[C@@H](NC(=O)c4ccccc4)c4ccccc4)C(C)=C1C3(C)C)[C@]1(OC(C)=O)CO[C@@H]1C[C@@H]2O` [Taxol], the half-inhibitory concentration (IC50) in assay [1] (setting [7]) worked out at 0.35 µM; in assay [2] (setting [8]), 0.7 µM; in assay [2] (setting [6]) it was 0.06 µM.
In the case of `CC[C@]1(O)C[C@H]2CN(CCc3c([nH]c4ccccc34)[C@@](C(=O)OC)(c3cc4c(cc3OC)N(C=O)[C@H]3[C@@](O)(C(=O)OC)[C@H](OC(C)=O)[C@]5(CC)C=CCN6CC[C@]43[C@@H]65)C2)C1` [Vincristine], the IC50 amounted to 0.03 µM in assay [1] (setting [7]), 0.2 µM in assay [2] (setting [8]) and 0.02 µM in assay [2] (setting [6]).
